Source: ChEMBL document CHEMBL5465560, “Selectivity Literature for EUbOPEN Chemogenomic Library” (2024)

Key:
[1] = target: T1, Tyrosine-protein kinase ZAP-70 (Homo sapiens) (UniProt P43403); test: Selectivity interaction (Upstate Kinase Profiler service (Millipore)) EUB0000056c ZAP70; settings: at 1 µM
T1 sequence (whole entry): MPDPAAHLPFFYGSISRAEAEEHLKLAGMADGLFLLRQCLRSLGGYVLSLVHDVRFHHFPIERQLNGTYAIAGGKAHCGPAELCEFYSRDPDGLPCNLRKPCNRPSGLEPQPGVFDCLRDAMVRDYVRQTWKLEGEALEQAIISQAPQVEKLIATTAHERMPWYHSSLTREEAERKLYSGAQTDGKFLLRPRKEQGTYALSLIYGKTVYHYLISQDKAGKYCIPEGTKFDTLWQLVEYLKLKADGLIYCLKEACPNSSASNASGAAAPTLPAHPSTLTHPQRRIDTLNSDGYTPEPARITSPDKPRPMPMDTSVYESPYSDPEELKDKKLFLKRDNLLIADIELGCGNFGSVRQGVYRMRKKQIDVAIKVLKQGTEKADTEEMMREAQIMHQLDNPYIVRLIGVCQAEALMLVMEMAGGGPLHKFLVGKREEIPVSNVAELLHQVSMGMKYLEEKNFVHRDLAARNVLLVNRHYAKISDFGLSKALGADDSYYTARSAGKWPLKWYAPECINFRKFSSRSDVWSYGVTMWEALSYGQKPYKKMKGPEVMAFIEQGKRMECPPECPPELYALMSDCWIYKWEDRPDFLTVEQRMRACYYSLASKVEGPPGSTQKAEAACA

[2] = target: CDK1/Cyclin A (Homo sapiens) (UniProt P06493+P20248); test: (§1) Selectivity interaction (ProQinase) EUB0000171b CDK1; type: protein-complex assay
[3] = target: CDK1/Cyclin E (Homo sapiens) (UniProt P06493+P24864); test: as §1; type: protein-complex assay
[4] = target: Cyclin-dependent kinase 1/cyclin B1 (Homo sapiens) (UniProt P06493+P14635); test: as §1; type: protein-complex assay
[5] = target: Vascular endothelial growth factor receptor 2 (Homo sapiens, UniProt P35968); test: Selectivity interaction (KinomeScan (DiscoverX)) EUB0000695a KDR; settings: at 100 nM
[6] = target: T2, Serine/threonine-protein kinase LATS2 (Homo sapiens) (UniProt Q9NRM7); test: Selectivity interaction (KinomeScan (DiscoverX)) EUB0000695a LATS2; settings: at 100 nM
T2 sequence (whole entry): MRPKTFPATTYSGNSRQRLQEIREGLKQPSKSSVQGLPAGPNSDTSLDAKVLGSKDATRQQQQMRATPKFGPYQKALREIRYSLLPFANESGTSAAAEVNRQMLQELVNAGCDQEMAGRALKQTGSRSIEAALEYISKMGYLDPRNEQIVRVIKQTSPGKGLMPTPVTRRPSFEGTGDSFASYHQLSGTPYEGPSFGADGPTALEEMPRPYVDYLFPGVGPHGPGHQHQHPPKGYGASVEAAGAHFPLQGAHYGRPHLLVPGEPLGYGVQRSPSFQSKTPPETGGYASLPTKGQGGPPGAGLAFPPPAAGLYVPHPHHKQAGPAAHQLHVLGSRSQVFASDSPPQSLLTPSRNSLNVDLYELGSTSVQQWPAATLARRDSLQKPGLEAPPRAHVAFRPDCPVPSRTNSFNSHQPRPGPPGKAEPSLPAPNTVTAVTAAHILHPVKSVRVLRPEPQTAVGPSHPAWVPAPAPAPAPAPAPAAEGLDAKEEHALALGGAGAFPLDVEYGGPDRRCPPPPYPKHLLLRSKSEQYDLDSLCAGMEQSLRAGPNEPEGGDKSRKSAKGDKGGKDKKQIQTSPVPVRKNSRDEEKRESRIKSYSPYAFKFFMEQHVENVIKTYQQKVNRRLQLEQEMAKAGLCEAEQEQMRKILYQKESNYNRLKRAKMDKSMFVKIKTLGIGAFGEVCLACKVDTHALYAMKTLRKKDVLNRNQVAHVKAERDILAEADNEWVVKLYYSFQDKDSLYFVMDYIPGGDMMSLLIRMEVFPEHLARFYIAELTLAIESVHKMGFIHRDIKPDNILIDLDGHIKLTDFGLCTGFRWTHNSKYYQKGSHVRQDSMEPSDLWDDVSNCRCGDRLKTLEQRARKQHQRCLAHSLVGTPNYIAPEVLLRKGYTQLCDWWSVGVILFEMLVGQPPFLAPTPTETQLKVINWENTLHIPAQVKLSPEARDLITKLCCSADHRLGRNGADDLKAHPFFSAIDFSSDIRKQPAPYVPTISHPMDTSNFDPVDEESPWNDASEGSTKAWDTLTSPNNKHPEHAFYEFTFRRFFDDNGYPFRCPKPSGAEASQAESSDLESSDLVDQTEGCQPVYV

[7] = target: Citron Rho-interacting kinase (Homo sapiens) (UniProt O14578); test: Selectivity interaction (KinomeScan (DiscoverX)) EUB0000229b CIT; settings: at 10 µM
[8] = target: Serine/threonine-protein kinase WNK4 (Homo sapiens) (UniProt Q96J92); test: Selectivity interaction (KinomeScan (DiscoverX)) EUB0000229b WNK4; settings: at 10 µM
[9] = target: T3, MAP kinase-activated protein kinase 5 (Homo sapiens) (UniProt Q8IW41); settings: at 10 µM
T3 sequence (whole entry): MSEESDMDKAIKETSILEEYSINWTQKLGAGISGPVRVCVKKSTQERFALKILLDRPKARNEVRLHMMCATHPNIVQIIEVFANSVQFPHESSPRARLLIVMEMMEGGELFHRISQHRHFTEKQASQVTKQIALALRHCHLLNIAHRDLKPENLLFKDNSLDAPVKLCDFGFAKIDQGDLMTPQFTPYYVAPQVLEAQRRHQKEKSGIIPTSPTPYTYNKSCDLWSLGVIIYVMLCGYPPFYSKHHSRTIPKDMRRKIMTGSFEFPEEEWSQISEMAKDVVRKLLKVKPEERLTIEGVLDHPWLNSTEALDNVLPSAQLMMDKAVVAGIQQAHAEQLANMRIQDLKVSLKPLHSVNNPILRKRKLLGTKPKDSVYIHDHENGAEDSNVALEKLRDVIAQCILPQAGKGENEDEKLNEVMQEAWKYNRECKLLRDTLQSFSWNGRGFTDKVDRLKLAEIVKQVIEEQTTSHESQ

CDK1/Cyclin E (Homo sapiens), sequence (P06493 whole entry, looked up): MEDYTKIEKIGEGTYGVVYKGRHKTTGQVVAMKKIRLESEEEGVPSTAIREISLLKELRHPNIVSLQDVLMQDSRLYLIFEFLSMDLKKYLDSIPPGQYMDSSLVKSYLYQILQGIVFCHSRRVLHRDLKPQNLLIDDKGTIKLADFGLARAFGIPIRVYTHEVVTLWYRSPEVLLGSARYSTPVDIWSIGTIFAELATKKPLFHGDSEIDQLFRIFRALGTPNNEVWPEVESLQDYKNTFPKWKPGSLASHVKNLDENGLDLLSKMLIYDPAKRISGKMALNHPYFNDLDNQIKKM
CDK1/Cyclin E (Homo sapiens), sequence (P24864 whole entry, looked up): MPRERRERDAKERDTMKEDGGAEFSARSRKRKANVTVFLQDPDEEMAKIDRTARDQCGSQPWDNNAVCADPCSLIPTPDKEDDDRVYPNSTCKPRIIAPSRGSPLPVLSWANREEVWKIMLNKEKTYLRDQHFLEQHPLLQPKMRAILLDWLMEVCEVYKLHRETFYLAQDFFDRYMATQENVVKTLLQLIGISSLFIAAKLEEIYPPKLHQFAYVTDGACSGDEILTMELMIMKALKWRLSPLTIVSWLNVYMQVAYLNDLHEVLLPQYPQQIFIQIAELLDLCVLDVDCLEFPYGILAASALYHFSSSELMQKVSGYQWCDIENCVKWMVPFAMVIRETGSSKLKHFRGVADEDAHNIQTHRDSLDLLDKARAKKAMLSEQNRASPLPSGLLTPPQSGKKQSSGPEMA
Cyclin-dependent kinase 1/cyclin B1 (Homo sapiens), sequence (P06493 whole entry, looked up): as the sequence (P06493 whole entry, looked up) above
Cyclin-dependent kinase 1/cyclin B1 (Homo sapiens), sequence (P14635 whole entry, looked up): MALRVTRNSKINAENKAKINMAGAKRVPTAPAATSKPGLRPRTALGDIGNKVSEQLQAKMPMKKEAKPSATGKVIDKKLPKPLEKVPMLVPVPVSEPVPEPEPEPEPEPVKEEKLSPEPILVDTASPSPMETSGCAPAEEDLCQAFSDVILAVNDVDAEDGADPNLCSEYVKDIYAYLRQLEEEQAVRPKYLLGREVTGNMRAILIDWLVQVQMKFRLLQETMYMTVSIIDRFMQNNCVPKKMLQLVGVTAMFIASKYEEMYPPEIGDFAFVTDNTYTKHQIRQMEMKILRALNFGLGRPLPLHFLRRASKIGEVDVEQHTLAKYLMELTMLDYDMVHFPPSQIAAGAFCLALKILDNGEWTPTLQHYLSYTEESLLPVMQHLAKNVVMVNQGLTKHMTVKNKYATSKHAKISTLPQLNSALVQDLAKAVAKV
CDK1/Cyclin A (Homo sapiens), sequence (P06493 whole entry, looked up): as the sequence (P06493 whole entry, looked up) above
CDK1/Cyclin A (Homo sapiens), sequence (P20248 whole entry, looked up): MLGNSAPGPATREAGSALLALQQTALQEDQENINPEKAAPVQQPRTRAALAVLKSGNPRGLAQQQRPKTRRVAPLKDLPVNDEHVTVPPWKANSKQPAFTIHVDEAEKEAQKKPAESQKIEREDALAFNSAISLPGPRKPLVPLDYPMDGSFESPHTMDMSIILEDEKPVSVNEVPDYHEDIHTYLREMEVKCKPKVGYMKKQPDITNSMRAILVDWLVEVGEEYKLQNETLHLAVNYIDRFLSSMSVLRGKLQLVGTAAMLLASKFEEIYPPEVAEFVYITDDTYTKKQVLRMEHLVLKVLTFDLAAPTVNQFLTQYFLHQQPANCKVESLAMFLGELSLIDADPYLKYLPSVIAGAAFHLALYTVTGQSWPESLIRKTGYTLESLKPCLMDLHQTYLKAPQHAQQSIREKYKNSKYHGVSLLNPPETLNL
Citron Rho-interacting kinase (Homo sapiens), sequence (O14578 whole entry): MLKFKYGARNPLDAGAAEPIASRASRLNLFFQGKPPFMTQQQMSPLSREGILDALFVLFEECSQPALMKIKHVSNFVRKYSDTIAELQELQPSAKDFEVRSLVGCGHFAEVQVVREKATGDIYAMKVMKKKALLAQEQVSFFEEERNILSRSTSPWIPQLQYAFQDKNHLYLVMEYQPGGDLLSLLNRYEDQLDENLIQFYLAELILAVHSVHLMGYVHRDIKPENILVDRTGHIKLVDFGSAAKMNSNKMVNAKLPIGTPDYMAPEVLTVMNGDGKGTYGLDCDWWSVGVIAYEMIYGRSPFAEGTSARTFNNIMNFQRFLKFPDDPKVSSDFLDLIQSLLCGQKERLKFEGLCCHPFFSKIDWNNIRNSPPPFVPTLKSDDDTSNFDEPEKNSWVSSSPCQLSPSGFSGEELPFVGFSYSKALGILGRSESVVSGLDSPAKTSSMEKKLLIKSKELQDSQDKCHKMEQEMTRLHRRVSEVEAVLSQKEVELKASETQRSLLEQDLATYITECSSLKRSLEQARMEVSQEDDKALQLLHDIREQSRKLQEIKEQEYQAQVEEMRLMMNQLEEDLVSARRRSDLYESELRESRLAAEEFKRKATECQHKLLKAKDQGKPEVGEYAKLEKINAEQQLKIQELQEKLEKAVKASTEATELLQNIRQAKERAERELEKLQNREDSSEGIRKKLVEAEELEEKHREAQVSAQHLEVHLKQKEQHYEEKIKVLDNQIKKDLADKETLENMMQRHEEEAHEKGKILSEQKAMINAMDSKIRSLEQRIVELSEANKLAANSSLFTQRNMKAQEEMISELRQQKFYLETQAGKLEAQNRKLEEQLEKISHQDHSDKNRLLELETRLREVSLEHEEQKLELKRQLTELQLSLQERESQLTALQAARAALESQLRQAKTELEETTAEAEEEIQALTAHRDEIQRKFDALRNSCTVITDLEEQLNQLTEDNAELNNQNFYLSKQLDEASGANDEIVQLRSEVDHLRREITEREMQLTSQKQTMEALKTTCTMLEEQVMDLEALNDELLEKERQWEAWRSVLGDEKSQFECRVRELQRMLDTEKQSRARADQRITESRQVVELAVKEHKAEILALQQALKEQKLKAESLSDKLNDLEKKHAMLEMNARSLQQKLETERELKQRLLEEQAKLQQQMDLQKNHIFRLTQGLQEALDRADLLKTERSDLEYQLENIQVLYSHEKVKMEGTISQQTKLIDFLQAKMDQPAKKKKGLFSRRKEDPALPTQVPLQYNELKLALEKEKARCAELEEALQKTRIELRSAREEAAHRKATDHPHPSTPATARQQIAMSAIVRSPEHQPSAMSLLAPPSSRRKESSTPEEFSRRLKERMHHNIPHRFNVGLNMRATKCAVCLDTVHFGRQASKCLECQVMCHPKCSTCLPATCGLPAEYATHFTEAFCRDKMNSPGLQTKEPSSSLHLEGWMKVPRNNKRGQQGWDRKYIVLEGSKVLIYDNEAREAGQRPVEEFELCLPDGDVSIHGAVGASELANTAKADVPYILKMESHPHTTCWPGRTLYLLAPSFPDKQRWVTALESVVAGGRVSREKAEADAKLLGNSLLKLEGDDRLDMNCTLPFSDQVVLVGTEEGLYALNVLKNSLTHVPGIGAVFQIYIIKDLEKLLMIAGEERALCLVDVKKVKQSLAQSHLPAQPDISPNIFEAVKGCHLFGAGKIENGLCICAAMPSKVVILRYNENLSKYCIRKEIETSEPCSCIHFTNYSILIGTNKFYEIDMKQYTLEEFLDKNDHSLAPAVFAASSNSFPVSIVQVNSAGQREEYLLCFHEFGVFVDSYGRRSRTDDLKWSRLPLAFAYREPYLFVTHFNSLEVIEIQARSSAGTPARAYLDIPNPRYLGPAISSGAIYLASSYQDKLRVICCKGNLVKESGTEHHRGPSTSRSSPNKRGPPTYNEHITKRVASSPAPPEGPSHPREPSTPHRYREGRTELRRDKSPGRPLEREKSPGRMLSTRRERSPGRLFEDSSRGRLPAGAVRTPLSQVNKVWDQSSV

Question: Cc1ccc(-c2ccc3c(ccc4sc5c(c43)NC[C@@H](C)NC5=O)n2)cn1 was tested. Which % of inhibition [1] did it give?
Answer: -8%

Question: For C=CC(=O)Nc1cccc(C(=O)Nc2ccc(Nc3cc(-c4[nH]c(SC)nc4C)ccn3)cc2)c1, which % of control ([2]; at 1 µM) is on record?
Answer: 89%

Question: What about the % of control ([2]; at 5 µM) of the same compound?
Answer: 79%

Question: And the % of control ([3]; at 1 µM)?
Answer: 90%

Question: And the % of control ([3]; at 5 µM)?
Answer: 74%

Question: What about the % of control ([4]; at 1 µM) of the same compound?
Answer: 94%

Question: What about the % of control ([4]; at 5 µM) of the same compound?
Answer: 77%

Question: What does the source list for Cc1cc(F)c(C(=O)Nc2cccc(-c3nncn3C(C)C)n2)cc1-n1cnc(C2CC2)c1?
Answer: % of control [5]: 100%; % of control [6]: 89%

Question: With COc1cc(N(C)c2ccnc3ccc(C(F)(F)F)cc23)cc(OC)c1OC as the compound, how does the % binding [7] read?
Answer: 93%

Question: What about the % binding [8] of the same compound?
Answer: 100%

Question: Cc1cc([C@@H](C)Nc2ccccc2C(=O)O)c2nc(N3CCOCC3)cc(=O)n2c1 [AZD-6482] was tested. Which % of control [9] did it give?
Answer: 100%
